Laboratory results taken from the supplement of paper PMC12463676, “Small-molecule dissolution of stress granules by redox modulation benefits ALS models” (Nature Chemical Biology, 2025).

Legend:
lipoamide = compound: NC(=O)CCCCC1CCSS1 [lipoamide]; assay: thermal stability z-score vs DMSO; higher = more thermally stabilized by treatment; details: HeLa, lipoamide concentration 100 µM
Protocol: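 Cellular thermal proteome profiling in HeLa cells. Cells were treated with 100 µM lipoamide for 1 h, with or without 1 mM arsenate for a further 1 h, then heated to ten temperatures (37-66.3 °C), and soluble protein was quantified by TMT mass spectrometry relative to 0.1% DMSO controls. The thermal stability score (sum of log2 fold changes minus the abundance score) was transformed to a z-score; mean of n = 3 experiments.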

potassium arsenate = compound: O=[As]([O-])(O)O.[K+] [potassium arsenate]; assay: as above; details: HeLa; arsenate concentration 1 mM
Protocol: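 Cellular thermal proteome profiling in HeLa cells treated with 1 mM arsenate for 1 h (DMSO pretreatment), heated to ten temperatures (37-66.3 °C). Soluble protein was quantified by TMT mass spectrometry relative to DMSO controls; the thermal stability score was transformed to a z-score; mean of n = 3 experiments.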

[1] = arsenate co-treatment: 1 mM arsenate 1 h
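Also: each temperature applied for 3 min, abundance score taken as mean log2 fold change at the two lowest temperatures, z-score obtained by mean subtraction and division by SD.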

UniProt Q147X3, sequence (Q147X3 whole entry): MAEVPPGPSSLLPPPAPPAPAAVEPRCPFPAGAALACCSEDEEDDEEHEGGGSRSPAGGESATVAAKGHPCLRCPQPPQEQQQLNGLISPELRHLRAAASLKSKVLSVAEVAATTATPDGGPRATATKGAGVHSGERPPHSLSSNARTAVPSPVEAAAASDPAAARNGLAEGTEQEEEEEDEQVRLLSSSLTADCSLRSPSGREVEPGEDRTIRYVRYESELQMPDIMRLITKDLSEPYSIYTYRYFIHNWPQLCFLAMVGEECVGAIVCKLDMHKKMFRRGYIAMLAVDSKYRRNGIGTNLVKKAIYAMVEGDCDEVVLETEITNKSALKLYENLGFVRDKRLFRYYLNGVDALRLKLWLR
UniProt Q9NW68, sequence (Q9NW68 whole entry): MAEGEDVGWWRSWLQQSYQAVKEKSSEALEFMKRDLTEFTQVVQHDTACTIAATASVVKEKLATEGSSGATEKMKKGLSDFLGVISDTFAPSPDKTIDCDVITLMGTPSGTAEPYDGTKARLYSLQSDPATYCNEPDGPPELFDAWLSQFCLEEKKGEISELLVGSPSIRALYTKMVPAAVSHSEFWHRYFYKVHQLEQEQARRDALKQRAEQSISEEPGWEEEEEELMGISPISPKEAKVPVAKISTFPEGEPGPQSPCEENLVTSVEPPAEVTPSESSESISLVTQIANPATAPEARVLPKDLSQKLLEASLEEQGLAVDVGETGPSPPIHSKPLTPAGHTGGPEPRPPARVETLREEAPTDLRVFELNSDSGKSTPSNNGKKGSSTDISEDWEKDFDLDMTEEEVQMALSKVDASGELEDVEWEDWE
UniProt Q9Y2U8, sequence (Q9Y2U8 whole entry): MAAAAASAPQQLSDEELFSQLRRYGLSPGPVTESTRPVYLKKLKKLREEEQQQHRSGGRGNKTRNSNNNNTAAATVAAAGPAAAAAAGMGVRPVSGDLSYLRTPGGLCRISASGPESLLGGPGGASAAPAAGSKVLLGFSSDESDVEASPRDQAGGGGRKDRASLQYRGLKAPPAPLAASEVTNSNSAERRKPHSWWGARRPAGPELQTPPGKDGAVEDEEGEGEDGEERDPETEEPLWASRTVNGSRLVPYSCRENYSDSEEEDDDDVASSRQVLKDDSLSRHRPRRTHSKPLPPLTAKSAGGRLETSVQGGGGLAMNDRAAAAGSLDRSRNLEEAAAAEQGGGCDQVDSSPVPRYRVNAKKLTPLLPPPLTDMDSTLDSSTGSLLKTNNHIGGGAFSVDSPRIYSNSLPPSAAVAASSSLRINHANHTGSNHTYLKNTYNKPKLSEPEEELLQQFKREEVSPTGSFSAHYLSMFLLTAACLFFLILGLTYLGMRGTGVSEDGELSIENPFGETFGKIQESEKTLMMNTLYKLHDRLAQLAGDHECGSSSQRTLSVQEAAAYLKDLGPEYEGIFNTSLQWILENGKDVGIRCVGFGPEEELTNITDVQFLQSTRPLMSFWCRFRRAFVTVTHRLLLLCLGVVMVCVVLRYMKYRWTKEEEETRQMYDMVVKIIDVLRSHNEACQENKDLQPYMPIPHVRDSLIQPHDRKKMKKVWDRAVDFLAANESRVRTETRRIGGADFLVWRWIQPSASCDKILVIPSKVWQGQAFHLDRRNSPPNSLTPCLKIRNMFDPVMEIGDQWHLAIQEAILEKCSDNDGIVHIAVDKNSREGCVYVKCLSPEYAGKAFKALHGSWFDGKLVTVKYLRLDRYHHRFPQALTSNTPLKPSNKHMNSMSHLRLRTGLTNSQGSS
UniProt Q96RT8, sequence (Q96RT8 whole entry): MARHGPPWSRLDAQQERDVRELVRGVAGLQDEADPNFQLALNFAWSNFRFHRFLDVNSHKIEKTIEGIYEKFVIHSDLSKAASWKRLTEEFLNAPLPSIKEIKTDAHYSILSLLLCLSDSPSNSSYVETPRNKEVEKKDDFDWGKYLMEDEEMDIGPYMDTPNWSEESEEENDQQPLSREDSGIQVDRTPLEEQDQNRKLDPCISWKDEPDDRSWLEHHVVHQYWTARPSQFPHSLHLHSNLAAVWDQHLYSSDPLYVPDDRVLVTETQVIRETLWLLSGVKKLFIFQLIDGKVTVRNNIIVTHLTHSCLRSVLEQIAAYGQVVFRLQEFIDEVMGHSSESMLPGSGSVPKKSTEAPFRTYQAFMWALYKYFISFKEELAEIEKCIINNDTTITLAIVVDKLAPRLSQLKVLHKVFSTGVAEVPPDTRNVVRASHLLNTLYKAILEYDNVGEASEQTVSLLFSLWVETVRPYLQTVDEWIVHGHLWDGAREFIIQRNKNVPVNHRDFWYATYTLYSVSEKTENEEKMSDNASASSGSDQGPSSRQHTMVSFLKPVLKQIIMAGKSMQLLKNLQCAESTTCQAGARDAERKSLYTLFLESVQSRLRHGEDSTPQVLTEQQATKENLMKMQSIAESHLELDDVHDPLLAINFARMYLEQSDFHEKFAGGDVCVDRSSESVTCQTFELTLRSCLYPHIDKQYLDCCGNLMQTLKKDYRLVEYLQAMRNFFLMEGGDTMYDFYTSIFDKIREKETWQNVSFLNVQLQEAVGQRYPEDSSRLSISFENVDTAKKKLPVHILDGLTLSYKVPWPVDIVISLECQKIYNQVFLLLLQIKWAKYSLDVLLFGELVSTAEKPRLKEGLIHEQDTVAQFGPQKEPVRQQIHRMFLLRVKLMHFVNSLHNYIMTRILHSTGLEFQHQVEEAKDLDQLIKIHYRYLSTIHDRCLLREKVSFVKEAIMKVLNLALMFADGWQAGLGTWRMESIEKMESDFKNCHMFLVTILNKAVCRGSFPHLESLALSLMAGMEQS
UniProt Q641Q2, sequence (Q641Q2 whole entry): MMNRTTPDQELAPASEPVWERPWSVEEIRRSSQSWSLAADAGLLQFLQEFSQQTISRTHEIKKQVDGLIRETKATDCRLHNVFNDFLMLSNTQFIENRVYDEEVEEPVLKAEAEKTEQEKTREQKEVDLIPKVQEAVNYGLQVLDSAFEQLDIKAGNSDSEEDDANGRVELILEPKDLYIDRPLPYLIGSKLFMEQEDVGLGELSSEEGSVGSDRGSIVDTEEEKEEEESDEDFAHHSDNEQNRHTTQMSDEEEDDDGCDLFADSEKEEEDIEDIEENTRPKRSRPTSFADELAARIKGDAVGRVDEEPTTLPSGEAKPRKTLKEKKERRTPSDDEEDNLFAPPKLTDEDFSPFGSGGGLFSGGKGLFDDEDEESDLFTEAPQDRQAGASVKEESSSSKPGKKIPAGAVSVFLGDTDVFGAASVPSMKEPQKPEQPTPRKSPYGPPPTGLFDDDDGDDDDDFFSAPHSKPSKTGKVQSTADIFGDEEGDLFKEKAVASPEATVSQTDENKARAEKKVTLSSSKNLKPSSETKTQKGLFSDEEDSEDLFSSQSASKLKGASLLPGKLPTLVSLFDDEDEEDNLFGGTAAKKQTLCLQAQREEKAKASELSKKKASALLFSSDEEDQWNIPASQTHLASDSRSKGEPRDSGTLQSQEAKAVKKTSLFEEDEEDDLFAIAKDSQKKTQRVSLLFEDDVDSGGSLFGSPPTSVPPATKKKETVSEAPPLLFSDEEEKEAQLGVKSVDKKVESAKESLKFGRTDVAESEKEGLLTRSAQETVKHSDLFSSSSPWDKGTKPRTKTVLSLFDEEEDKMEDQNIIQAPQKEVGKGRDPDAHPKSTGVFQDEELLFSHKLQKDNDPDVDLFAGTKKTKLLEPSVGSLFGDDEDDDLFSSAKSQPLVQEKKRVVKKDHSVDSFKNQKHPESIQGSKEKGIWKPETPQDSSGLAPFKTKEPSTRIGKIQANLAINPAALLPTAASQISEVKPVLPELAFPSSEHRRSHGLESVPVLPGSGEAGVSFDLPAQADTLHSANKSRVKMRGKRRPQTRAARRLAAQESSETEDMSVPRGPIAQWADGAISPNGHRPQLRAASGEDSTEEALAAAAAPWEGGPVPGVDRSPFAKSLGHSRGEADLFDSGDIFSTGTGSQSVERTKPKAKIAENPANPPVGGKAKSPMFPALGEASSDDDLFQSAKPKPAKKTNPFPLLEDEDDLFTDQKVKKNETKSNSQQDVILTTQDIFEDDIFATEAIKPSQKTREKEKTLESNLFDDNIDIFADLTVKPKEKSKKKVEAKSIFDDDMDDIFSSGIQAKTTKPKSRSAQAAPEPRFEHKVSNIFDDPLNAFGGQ
UniProt Q9NZD8, sequence (Q9NZD8 whole entry): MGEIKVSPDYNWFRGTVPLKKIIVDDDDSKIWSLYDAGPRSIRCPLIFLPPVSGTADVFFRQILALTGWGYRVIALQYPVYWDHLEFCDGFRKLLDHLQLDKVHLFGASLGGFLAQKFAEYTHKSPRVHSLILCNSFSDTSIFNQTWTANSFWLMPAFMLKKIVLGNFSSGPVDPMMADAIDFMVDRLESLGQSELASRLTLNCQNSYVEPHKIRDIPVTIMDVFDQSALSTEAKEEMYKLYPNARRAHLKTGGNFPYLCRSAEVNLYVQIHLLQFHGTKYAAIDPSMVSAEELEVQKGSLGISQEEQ
UniProt O15392, sequence (O15392 whole entry): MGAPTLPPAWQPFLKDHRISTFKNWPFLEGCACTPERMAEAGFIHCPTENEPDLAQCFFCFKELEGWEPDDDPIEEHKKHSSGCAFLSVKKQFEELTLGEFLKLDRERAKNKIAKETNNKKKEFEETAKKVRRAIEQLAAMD
UniProt Q9NY27, sequence (Q9NY27 whole entry): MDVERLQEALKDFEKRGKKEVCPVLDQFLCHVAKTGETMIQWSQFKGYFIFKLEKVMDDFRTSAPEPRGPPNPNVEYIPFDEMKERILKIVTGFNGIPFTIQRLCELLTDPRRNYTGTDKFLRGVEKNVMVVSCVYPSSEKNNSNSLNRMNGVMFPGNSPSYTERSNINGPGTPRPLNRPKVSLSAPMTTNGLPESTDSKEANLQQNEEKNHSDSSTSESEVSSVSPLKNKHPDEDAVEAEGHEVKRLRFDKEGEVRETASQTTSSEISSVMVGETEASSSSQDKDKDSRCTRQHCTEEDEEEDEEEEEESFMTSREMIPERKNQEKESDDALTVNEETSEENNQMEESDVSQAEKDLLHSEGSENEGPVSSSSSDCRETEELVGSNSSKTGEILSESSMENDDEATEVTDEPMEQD

Target	thermal stability z-score (lipoamide; [1])	thermal stability z-score (lipoamide; arsenate co-treatment: none)	thermal stability z-score (potassium arsenate)
STUB1 (UniProt Q9UNE7)	-0.065	-0.23	0.207
RHOT1 (UniProt Q8IXI2)	-0.488	-0.262	-0.708
PPP4R2 (UniProt Q9NY27)	-0.326	0.221	-0.136
CASKIN2 (UniProt Q8WXE0)	-0.798	0.441	0.938
CCNA2 (UniProt P20248)	1.41	0.18	1.25
PRRC2C (UniProt Q9Y520)	0.242	0.174	0.0846
H1F0 (UniProt P07305)	0.135	-0.22	-0.062
CCDC93 (UniProt Q567U6)	-0.728	-0.078	0.0272
CASP6 (UniProt P55212)	1.05	1.33	0.158
CPSF3L (UniProt Q5TA45)	0.622	0.702	0.178
SERPINI1 (UniProt Q99574)	-0.495	0.0132	0.709
UMPS (UniProt P11172)	0.111	0.297	-1.02
ITGA3 (UniProt P26006)	0.122	0.207	0.402
VPRBP (UniProt Q9Y4B6)	-0.368	-0.578	0.0129
CTSB (UniProt P07858)	-0.289	-0.315	-0.676
PCBD1 (UniProt P61457)	0.499	0.492	0.213
AP3S1 (UniProt Q92572)	0.0661	0.0785	0.131
SRGAP1 (UniProt Q7Z6B7)	-0.0604	-0.163	-0.0461
PDSS2 (UniProt Q86YH6)	0.66	0.484	-0.169
MNAT1 (UniProt P51948)	-0.257	-0.423	0.102
TMEM41B (UniProt Q5BJD5)	0.259	0.188	-0.153
UBR4 (UniProt Q5T4S7)	-0.162	-0.16	0.242
TCAF1 (UniProt Q9Y4C2)	0.246	0.355	0.396
TIFA (UniProt Q96CG3)	-0.71	-0.0546	-0.879

Target	thermal stability z-score (lipoamide; [1])	thermal stability z-score (lipoamide; arsenate co-treatment: none)	thermal stability z-score (potassium arsenate)
CAB39 (UniProt Q9Y376)	0.454	0.641	-0.245
GMPR2 (UniProt Q9P2T1)	0.37	0.368	0.121
BIRC5 (UniProt O15392)	0.166	0.186	0.136
ATAD1 (UniProt Q8NBU5)	0.216	0.454	0.641
ASPSCR1 (UniProt Q9BZE9)	0.207	-0.218	-0.304
ZFYVE16 (UniProt Q7Z3T8)	-0.45	0.222	-0.676
BSDC1 (UniProt Q9NW68)	-0.585	-0.361	-0.209
ORC5 (UniProt O43913)	-0.0478	0.0761	-0.065
PPIP5K2 (UniProt O43314)	0.258	0.00428	-0.606
SEC16A (UniProt O15027)	0.237	1.39	0.285
RPS19BP1 (UniProt Q86WX3)	-0.305	-0.278	-0.522
MGLL (UniProt Q99685)	0.592	0.117	-0.132
MAPK14 (UniProt Q16539)	0.87	-0.0481	0.772
FBXO21 (UniProt O94952)	-0.226	-1.07	0.0266
SPG21 (UniProt Q9NZD8)	-0.161	0.136	0.634
AAR2 (UniProt Q9Y312)	-0.223	0.408	-0.912
TGS1 (UniProt Q96RS0)	-0.109	-0.175	1.17
NFKB2 (UniProt Q00653)	-0.498	0.158	0.523
CTBP2 (UniProt P56545)	0.985	-0.0596	0.448
GSTK1 (UniProt Q9Y2Q3)	-0.0293	0.351	-0.0332
NAA30 (UniProt Q147X3)	-0.282	0.317	-0.43
FAM172A (UniProt Q8WUF8)	0.954	0.472	0.275
KIAA0368|ECM29	-0.212	0.501	0.537
TOP3A (UniProt Q13472)	-0.152	0.21	-0.457

Target	thermal stability z-score (lipoamide; [1])	thermal stability z-score (lipoamide; arsenate co-treatment: none)	thermal stability z-score (potassium arsenate)
LTN1 (UniProt O94822)	0.0185	0.0878	0.0334
LYPLA1 (UniProt O75608)	0.624	-0.159	-0.862
TES (UniProt Q9UGI8)	0.0136	-0.287	-4.89
LEMD3 (UniProt Q9Y2U8)	0.161	0.209	-0.685
MYH10 (UniProt P35580)	0.273	0.19	0.375
FAM21A (UniProt Q641Q2)	0.0165	-0.365	0.352
PSMA5 (UniProt P28066)	0.148	0.204	-0.238
RFK (UniProt Q969G6)	-0.697	-0.27	0.313
ZNF277 (UniProt Q9NRM2)	0.365	0.166	-0.515
BAG4 (UniProt O95429)	0.25	0.752	0.76
ACTR1B (UniProt P42025)	1.04	0.945	0.0363
PSMG1 (UniProt O95456)	1.07	0.507	4.18
TUBGCP5 (UniProt Q96RT8)	-0.335	-0.139	-0.119
TRIP11 (UniProt Q15643)	-2.35	-0.484	0.782
QRICH1 (UniProt Q2TAL8)	-0.132	-0.0369	0.0998
ISG20 (UniProt Q96AZ6)	0.189	0.668	0.863
ZFP91 (UniProt Q96JP5)	-0.301	0.00195	-0.352
C14ORF166 (UniProt Q9Y224)	0.126	0.251	-0.994
RTCB (UniProt Q9Y3I0)	0.445	0.0607	-1.21
ATAD3B (UniProt Q5T9A4)	-0.338	-0.0604	0.607
SFPQ (UniProt P23246)	2.47	2.22	1.15
CEP152 (UniProt O94986)	-0.185	-0.184	0.269
DOCK7 (UniProt Q96N67)	-0.23	0.0599	0.962
